# Experimental data as given in publication PMC6017062, “Probing the Inhibitor versus Chaperone Properties of sp^2-Iminosugars towards Human β-Glucocerebrosidase: A Picomolar Chaperone for Gaucher Disease” (Molecules : A Journal of Synthetic Chemistry and Natural …, 2018).
# Like-named read-outs stand apart in the source and are kept apart here.
# Tests used:
# Format in all cases: biochemical
# [1] = biological target: T1, β-galactosidase (β-Galase) (Escherichia coli, UniProt P00722); test: Commercial glycosidase inhibition: β-galactosidase from E. coli (β-Galase); conditions: mean ± SD, three determinations; competitive; n.i. = no inhibition detected at 1 mM
# T1 construct: purchased
# Excerpt: (§1) We first evaluated the inhibitory properties of the new nonreducing mono- and bicyclic sp^2-iminosugars 4–15 against a panel of commercial glycosidases that included the α-glucosidases maltase (yeast maltase; α-Glcase1) and isomaltase (α-Glcase2) from Saccharomyces cerevisiae and amyloglucosidase (α-Glcase3) from Aspergillus niger, the β-glucosidases from almonds (β-Glcase1) and bovine liver (β-Glcase2), the α-galactosidase from green coffee beans (α-Galase), the β-galactosidase from Escherichia coli (β-Galase), and the α-mannosidase from Jack bean (α-Manase).
# (§2) Inhibition constant (Ki) values were determined by spectrophotometrically measuring the residual hydrolytic activities of the glycosidases against the respective o- (for β-galactosidase from E. coli) or p-nitrophenyl α- or β-D-glycopyranoside (for other glycosidases) in the presence of the iminosugars. Each assay was performed in phosphate buffer or phosphate-citrate buffer (for α- or β-mannosidase and amyloglucosidase) at the optimal pH for the enzymes. The reactions were initiated by addition of the enzyme to a solution of the substrate in the absence or presence of various inhibitor concentrations. The mixture was incubated for 10–30 min at 37 °C or 55 °C (for amyloglucosidase) and the reaction was quenched by addition of 1 M Na2CO3. Reaction times were appropriate to obtain 10–20% conversion of the substrate in order to achieve linear rates. The absorbance of the resulting mixture was determined at 405 nm. Approximate value of Ki was determined from the slope of Dixon plots using a fixed concentration of substrate (around the Km value for the different glycosidases) and various concentrations of inhibitor. Full Ki determinations and enzyme inhibition mode were determined from the slope of Lineweaver–Burk plots and double reciprocal analysis.
# [2] = biological target: T2, α-galactosidase from green coffee beans (α-Galase) (Coffea arabica, UniProt Q42656); test: Commercial glycosidase inhibition: α-galactosidase from green coffee beans (α-Galase); conditions: mean ± SD, three determinations; competitive; n.i. = no inhibition detected at 1 mM
# T2 construct: purchased
# Excerpt: as §1, §2
# [3] = biological target: T3, amyloglucosidase (α-Glcase3) (Aspergillus niger, UniProt P69328); test: Commercial glycosidase inhibition: amyloglucosidase (α-Glcase3); conditions: mean ± SD, three determinations; competitive; n.i. = no inhibition detected at 1 mM
# T3 construct: purchased
# Excerpt: as §1, §2
# [4] = biological target: β-glucosidase from almonds (β-Glcase1); test: Commercial glycosidase inhibition: β-glucosidase from almonds (β-Glcase1); conditions: mean ± SD, three determinations; competitive; n.i. = no inhibition detected at 1 mM
# Excerpt: as §1, §2
# isomaltase (α-Glcase2) = biological target: T4, isomaltase (α-Glcase2) (Saccharomyces cerevisiae, UniProt P53051); test: Commercial glycosidase inhibition: isomaltase (α-Glcase2)
# T4 construct: purchased
# Excerpt: as §1, §2
# [5] = biological target: T5, α-glucosidase maltase (yeast maltase; α-Glcase1) (Saccharomyces cerevisiae, UniProt P53341); test: Commercial glycosidase inhibition: maltase (yeast maltase; α-Glcase1); conditions: three determinations, competitive, n.i. = no inhibition detected at 1 mM
# T5 construct: purchased
# Excerpt: as §1, §2
# [6] = biological target: T6, α-mannosidase from Jack bean (α-Manase) (Canavalia ensiformis, UniProt C0HJB3); test: Commercial glycosidase inhibition: α-mannosidase from Jack bean (α-Manase); conditions: mean ± SD, three determinations; competitive; n.i. = no inhibition detected at 1 mM
# T6 construct: purchased
# T6 sequence (C0HJB3 1-981): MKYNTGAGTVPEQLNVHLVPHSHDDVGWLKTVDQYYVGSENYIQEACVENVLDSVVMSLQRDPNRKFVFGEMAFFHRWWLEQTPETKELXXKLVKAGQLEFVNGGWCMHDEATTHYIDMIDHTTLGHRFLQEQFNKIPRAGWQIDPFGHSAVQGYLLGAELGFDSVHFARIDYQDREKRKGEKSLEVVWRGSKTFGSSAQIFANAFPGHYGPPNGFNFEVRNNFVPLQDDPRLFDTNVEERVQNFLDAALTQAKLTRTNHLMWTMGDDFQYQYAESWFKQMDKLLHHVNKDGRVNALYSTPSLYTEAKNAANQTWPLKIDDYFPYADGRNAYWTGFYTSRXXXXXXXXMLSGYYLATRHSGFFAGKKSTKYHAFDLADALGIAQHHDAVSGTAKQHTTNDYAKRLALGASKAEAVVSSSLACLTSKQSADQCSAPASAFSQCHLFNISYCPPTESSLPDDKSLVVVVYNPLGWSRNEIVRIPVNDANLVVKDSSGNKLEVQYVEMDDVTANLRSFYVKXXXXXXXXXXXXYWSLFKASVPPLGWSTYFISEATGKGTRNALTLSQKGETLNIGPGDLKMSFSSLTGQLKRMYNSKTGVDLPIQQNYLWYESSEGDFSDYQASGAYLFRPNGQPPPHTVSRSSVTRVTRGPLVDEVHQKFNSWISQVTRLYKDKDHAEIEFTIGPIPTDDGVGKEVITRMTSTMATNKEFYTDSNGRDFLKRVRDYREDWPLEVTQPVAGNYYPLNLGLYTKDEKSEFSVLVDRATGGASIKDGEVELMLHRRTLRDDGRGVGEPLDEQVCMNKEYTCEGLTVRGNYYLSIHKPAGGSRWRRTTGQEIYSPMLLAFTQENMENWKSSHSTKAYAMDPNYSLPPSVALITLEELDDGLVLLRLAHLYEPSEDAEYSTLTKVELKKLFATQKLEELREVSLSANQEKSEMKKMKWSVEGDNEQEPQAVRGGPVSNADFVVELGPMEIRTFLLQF
# Excerpt: as §1, §2
# [7] = mean ± SD, three determinations, competitive, n.i. = no inhibition detected at 1 mM
# [8] = Dixon or Lineweaver-Burk plot, read-out: Ki against isomaltase (supplement figure legends)
# [9] = mean ± SD, three determinations, competitive, n.i. = no inhibition detected at 1 mM, read-out: Ki α-Glcase2
# T3 sequence (P69328 25-640): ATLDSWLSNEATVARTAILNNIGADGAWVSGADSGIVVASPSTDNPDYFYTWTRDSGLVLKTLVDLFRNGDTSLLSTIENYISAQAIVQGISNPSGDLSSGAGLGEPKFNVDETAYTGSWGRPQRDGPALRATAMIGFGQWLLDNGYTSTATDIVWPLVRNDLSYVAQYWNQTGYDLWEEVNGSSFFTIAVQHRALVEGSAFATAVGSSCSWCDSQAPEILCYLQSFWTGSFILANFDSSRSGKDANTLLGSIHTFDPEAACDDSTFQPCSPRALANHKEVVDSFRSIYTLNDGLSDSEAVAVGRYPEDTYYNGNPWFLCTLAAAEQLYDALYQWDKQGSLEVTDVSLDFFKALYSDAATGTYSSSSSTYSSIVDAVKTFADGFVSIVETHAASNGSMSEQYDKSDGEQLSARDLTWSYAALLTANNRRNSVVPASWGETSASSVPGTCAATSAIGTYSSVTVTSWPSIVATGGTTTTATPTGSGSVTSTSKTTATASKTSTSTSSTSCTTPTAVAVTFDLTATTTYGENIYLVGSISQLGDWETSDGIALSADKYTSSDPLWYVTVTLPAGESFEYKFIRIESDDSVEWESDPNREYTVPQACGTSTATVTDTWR
# T4 sequence (P53051 whole entry): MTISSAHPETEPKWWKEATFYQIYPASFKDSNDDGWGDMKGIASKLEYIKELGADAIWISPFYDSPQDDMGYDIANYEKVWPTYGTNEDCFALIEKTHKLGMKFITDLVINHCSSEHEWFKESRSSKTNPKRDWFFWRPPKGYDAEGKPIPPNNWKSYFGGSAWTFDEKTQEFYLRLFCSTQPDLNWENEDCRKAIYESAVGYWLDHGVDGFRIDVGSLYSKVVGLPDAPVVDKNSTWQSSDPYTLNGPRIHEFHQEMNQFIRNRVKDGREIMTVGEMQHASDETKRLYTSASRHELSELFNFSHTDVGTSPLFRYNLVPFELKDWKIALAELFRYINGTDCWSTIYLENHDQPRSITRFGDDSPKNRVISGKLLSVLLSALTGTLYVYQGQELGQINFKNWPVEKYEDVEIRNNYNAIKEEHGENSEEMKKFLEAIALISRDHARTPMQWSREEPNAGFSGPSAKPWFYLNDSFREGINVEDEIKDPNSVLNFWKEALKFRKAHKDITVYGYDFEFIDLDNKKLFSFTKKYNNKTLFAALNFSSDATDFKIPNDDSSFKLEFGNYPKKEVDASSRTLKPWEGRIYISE
# T5 sequence (P53341 whole entry): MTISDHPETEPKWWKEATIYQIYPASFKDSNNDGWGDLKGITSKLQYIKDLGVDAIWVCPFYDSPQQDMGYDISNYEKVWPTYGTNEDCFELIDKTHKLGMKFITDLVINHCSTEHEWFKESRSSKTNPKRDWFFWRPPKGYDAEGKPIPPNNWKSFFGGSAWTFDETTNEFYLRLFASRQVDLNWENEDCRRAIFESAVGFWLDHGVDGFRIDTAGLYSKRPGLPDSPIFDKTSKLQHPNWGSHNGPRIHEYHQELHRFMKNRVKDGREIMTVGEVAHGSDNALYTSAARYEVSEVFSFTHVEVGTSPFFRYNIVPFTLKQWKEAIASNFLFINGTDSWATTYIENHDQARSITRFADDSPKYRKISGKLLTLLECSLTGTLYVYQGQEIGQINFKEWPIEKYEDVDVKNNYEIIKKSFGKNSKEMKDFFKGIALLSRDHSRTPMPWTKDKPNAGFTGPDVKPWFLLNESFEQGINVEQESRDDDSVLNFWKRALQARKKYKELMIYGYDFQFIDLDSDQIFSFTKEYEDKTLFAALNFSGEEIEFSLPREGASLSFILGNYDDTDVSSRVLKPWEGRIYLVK
# T2 sequence (Q42656 16-378): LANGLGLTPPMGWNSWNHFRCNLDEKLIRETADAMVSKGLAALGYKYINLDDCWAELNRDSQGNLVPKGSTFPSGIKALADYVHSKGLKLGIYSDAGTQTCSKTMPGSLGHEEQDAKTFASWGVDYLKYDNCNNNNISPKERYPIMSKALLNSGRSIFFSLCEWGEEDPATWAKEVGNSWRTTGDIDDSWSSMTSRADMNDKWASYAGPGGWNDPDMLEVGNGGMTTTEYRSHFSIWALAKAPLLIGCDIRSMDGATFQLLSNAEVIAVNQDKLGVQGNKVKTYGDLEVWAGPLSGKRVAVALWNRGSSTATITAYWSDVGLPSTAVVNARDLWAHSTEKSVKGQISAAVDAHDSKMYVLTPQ
# T1 sequence (P00722 2-1024 limits assumed): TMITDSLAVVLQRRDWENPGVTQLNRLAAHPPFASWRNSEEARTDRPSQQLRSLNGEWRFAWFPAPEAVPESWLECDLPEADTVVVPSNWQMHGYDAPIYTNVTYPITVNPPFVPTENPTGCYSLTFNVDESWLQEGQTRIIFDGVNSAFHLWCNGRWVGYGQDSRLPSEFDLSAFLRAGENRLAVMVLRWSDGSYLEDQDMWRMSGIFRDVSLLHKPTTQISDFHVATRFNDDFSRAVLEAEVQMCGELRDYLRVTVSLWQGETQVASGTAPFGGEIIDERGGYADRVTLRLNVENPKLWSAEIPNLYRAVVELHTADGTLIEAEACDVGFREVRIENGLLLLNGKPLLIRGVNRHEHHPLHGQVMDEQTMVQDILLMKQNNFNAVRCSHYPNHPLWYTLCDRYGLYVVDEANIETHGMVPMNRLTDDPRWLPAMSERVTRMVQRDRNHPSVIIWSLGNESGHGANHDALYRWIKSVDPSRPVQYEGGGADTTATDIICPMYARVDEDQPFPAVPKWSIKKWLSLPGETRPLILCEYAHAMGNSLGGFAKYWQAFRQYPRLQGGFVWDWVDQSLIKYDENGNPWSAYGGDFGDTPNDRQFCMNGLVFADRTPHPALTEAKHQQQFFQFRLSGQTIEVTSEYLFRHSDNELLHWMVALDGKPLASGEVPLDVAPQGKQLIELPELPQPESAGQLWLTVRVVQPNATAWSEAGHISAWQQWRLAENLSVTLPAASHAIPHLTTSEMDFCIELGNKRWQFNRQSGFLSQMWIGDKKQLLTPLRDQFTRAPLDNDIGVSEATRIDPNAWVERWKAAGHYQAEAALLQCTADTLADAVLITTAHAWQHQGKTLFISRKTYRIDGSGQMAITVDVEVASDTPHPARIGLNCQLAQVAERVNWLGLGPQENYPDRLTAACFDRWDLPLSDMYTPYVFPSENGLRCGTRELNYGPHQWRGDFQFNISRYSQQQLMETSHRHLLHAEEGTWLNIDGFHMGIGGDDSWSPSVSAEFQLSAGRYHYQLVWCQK
Compound,Ki β-Galase [1],Ki α-Galase [2],Ki α-Glcase3 [3],Ki [4],Ki α-Glcase2 (isomaltase (α-Glcase2); [7]),Ki α-Glcase1 ([5]; mean ± SD),Ki α-Manase [6],Ki [3],Ki (isomaltase (α-Glcase2); [8]),"Ki ([5]; Ki α-Glcase1, mean ± SD)",Ki [2],Ki (isomaltase (α-Glcase2); [9]),"Ki ([5]; mean ± SD, read-out: Ki α-Glcase1)",Ki [6]
"CCCCN=C1SCC2C(O)C(O)C(O)CN12 (stereo not drawn) [Compound 5, 1-Deoxy-6-thio-5-N,6-S-(N′-butyliminomethylidene)nojirimycin]",n.i.,n.i.,n.i.,1.1 ± 0.1 µM,n.i.,n.i.,n.i.,,,,,,,
"OC1CN2C(=Nc3ccccc3)SCC2C(O)C1O (stereo not drawn) [Compound 6, 1-Deoxy-6-thio-5-N,6-S-(N′-phenyliminomethylidene)nojirimycin]",n.i.,n.i.,,48 ± 4 µM,n.i.,,n.i.,44 ± 3 µM,44 ± 3 µM,406 ± 20 µM,,,,
"CCCCCCCCN=C1SCC2C(O)C(O)C(O)CN12 [Compound 7, 5-N,6-S-(N′-Octyliminomethylidene)-6-thio-1-deoxy-L-idonojirimycin]",n.i.,,n.i.,3.9 ± 0.3 µM,n.i.,n.i.,n.i.,,,,504 ± 32 µM,,,
"CCCCN=C1SCC2C(O)C(O)C(O)CN12 [Compound 8, 5-N,6-S-(N′-Butyliminomethylidene)-6-thio-1-deoxy-L-idonojirimycin]",n.i.,n.i.,n.i.,19 ± 9 µM,n.i.,n.i.,n.i.,,,,,,,
"OC1CN2C(=Nc3ccccc3)SCC2C(O)C1O [Compound 9, 5-N,6-S-(N′-Phenyliminomethylidene)-6-thio-1-deoxy-L-idonojirimycin]",n.i.,,n.i.,309 ± 19 µM,n.i.,,n.i.,,,262 ± 15 µM,772 ± 35 µM,,,
"CCCCCCCCNC(=S)N1C[C@H](O)[C@@H](O)[C@H](O)[C@H]1CO [Compound 10, 1-Deoxy-N-(N′-octylthiocarbamoyl)nojirimicin]",n.i.,n.i.,,1.3 ± 0.1 µM,,,n.i.,129 ± 10 µM,,481 ± 27 µM,,116 ± 8 µM,,
"CCCCNC(=S)N1C[C@H](O)[C@@H](O)[C@H](O)[C@H]1CO [Compound 11, 1-Deoxy-N-(N′-butylthiocarbamoyl)nojirimicin]",n.i.,,,20 ± 2 µM,,,n.i.,213 ± 18 µM,,,847 ± 42 µM,121 ± 9 µM,568 ± 30 µM,
"OC[C@@H]1[C@@H](O)[C@H](O)[C@@H](O)CN1C(=S)Nc1ccccc1 [Compound 12, 1-Deoxy-N-(N′-phenylthiocarbamoyl)nojirimicin]",n.i.,,,23 ± 3 µM,,,,18 ± 2 µM,18 ± 2 µM,60 ± 4 µM,122 ± 9 µM,10 ± 1 µM,,294 ± 18 µM
"CCCCCCCCNC(=S)N1C[C@H](O)[C@@H](O)[C@H](O)[C@@H]1CO [Compound 13, N-(N′-Octylthiocarbamoyl)-1-deoxy-L-idonojirimycin]",n.i.,,n.i.,227 ± 13 µM,n.i.,n.i.,n.i.,,,,60 ± 15 µM,,,
"CCCCNC(=S)N1C[C@H](O)[C@@H](O)[C@H](O)[C@@H]1CO [Compound 14, N-(N′-Butylthiocarbamoyl)-1-deoxy-L-idonojirimycin]",n.i.,n.i.,n.i.,51 ± 13 µM,n.i.,n.i.,n.i.,,,,,,,
"OC[C@H]1[C@@H](O)[C@H](O)[C@@H](O)CN1C(=S)Nc1ccccc1 [Compound 15, N-(N′-Phenylthiocarbamoyl)-1-deoxy-L-idonojirimycin]",n.i.,,,294 ± 18 µM,,,n.i.,271 ± 17 µM,,293 ± 18 µM,77 ± 16 µM,443 ± 22 µM,,
